Experimental findings from ChEMBL document CHEMBL3390839, “Triazolopyrimidinones as -secretase modulators: structureactivity relationship, modulator profile, and in vivo profiling” (Medchemcomm, 2013) are described below.

SMILES strings stand for the structures. Converted amounts (≈) assume the structure as drawn. The source made the active and inactive calls. The calls are words filed in the database; no cut-off is given here.

Series [1] can be described thus: Half life in C57BL/6 mouse at 3 umol/kg, iv. The note with it: in vivo. Format: ADME, organism-based.
Series [2] relates to Mus musculus. Briefly: Dose normalized AUC in C57BL/6 mouse at 3 umol/kg, iv. As to conditions: in vivo. It counts as ADME, organism-based.
Series [3] can be described thus: Volume of distribution at steady state in C57BL/6 mouse at 3 umol/kg, iv. It counts as ADME, organism-based. As to conditions: in vivo, read-out: Vdss.
Series [4] has as its target Voltage-gated inwardly rectifying potassium channel KCNH2 (Homo sapiens, UniProt Q12809). Briefly: Inhibition of human ERG.
The subject of series [5] is Mus musculus. Kind of series: Reduction in amyloid beta42 production in C57BL/6 mouse brain at 150 umol/kg, po after 1.5 hrs by ELISA relative to vehicle treated control. Format: functional. The note with it: C57BL/6, Brain. For orientation: An ELISA detects its analyte on a solid surface through an enzyme-linked reagent.
Series [6] in a line: Permeability across apical to basolateral side in human Caco2 cells. Format: ADME, cell-based. The note with it: Caco-2, read-out: permeability. On the technique in general: Passage across Caco-2 layers is used to estimate intestinal permeability.
The nature of series [7]: Solubility of the compound. It counts as physicochemical.
A further series has as its target Gamma-secretase. Briefly: Inhibition of human gamma-secretase in HEK-APPswe cells assessed as amyloid beta42 production by electrochemiluminescence assay. Format: cell-based.
Series [8] is described as follows: Ratio of drug level in brain to plasma in C57BL/6 mouse. Format: ADME, organism-based. As to conditions: brain and plasma, read-out: BPR.
Another series deals with Liver microsome. Kind of series: Intrinsic clearance in human liver microsomes measured pre ug of protein. Format: ADME. A general note: Liver microsomes are a subcellular fraction often used to study metabolism.
Series [9] has as its system Mus musculus. Kind of series: Dose normalized AUC in C57BL/6 mouse at 10 umol/kg, po. Format: ADME, organism-based. The note with it: in vivo.
The subject of series [10] is Mus musculus. Kind of series: Reduction in amyloid beta42 production in C57BL/6 mouse brain at 50 umol/kg, po after 1.5 hrs by ELISA relative to vehicle treated control. It counts as functional. The note with it: C57BL/6, Brain.
The nature of series [11]: Inhibition of gamma-secretase in mouse primary cortical neurons cells assessed as amyloid beta42 production after 5 days by ELISA. As to conditions: cerebral cortex neuron. It counts as cell-based, Cerebral cortex neuron.
Series [12] is described as follows: Tmax in C57BL/6 mouse at 10 umol/kg, po. It counts as ADME, organism-based. As to conditions: in vivo.
A short description of series [13]: Clearance in C57BL/6 mouse at 3 umol/kg, iv. It counts as ADME, organism-based. The note with it: in vivo.
The nature of series [14]: Permeability across basolateral to apical side in human Caco2 cells. It counts as ADME, cell-based. The note with it: Caco-2, read-out: permeability.
The nature of series [15]: Oral bioavailability in C57BL/6 mouse at 10 umol/kg. The note with it: in vivo. Format: ADME, organism-based.
Series [16] in a line: Half life in C57BL/6 mouse at 10 umol/kg, po. It counts as ADME, organism-based. As to conditions: in vivo.
A short description of series [17]: Cmax in C57BL/6 mouse at 10 umol/kg, po. It counts as ADME, organism-based. More on the design: dose 10 umol/kg, route oral. The note with it: in vivo.
The target in series [18] is T1, Gamma-secretase (Homo sapiens) (UniProt Q96BI3+Q9NZ42+Q8WW43+P49768+Q92542+P49810). Briefly: Inhibition of human gamma-secretase in HEK-APPswe cells assessed as notch processing at 8 uM by electrochemiluminescence assay. Format: cell-based.
For series [19], the target named is T1, Gamma-secretase (Homo sapiens). Briefly: Inhibition of human gamma-secretase in HEK-APPswe cells assessed as amyloid beta40 production at 10 nM by electrochemiluminescence assay. Format: cell-based.
For series [20] the target is unchanged. Briefly: Inhibition of human gamma-secretase in HEK-APPswe cells assessed as amyloid beta42 production at 10 nM by electrochemiluminescence assay. Format: cell-based.
For series [21] the target is unchanged. Briefly: Inhibition of human gamma-secretase in HEK-APPswe cells assessed as amyloid beta38 production at 10 nM by electrochemiluminescence assay. Format: cell-based.
Series [22] shares this target. Briefly: Inhibition of human gamma-secretase in HEK-APPswe cells assessed as amyloid beta37 production at 10 nM by electrochemiluminescence assay. It counts as cell-based.
The target is the same in series [23]. Briefly: Inhibition of human gamma-secretase in HEK-APPswe cells assessed as amyloid beta39 production at 10 nM by electrochemiluminescence assay. It counts as cell-based.
The target is the same in series [24]. Briefly: Inhibition of human gamma-secretase in HEK-APPswe cells assessed as notch processing at 5 uM by electrochemiluminescence assay. Format: cell-based.

Voltage-gated inwardly rectifying potassium channel KCNH2, sequence (Q12809 whole entry): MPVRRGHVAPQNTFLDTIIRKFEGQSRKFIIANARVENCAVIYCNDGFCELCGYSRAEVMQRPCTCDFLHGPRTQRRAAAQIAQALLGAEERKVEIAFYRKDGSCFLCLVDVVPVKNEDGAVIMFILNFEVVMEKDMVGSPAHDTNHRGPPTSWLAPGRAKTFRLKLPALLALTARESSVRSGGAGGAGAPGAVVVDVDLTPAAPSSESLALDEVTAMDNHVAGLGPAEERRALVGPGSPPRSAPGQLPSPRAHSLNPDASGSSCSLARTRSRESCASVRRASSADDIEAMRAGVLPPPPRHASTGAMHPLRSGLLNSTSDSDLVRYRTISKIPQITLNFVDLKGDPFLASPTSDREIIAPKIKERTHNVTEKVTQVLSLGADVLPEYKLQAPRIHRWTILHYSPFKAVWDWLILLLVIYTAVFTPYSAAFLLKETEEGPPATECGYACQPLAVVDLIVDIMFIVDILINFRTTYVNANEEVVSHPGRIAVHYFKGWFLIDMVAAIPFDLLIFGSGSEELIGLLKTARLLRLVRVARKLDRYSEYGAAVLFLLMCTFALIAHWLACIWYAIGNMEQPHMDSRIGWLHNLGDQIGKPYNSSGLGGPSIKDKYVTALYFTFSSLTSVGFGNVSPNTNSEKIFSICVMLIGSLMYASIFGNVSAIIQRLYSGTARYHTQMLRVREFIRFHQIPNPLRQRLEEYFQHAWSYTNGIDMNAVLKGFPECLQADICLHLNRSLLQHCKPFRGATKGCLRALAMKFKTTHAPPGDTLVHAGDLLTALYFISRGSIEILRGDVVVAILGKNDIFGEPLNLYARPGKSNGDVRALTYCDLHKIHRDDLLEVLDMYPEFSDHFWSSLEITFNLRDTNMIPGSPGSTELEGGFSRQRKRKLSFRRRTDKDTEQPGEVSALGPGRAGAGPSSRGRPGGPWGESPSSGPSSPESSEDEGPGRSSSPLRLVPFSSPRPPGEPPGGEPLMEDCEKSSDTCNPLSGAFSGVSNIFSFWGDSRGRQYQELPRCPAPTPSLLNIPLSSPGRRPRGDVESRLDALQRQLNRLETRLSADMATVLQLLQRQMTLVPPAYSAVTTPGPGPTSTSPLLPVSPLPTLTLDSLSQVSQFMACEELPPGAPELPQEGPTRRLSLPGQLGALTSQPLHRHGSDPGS

Consider `COc1cc(Nc2nc3n(n2)C(C)CC(=O)N3Cc2ccccc2)ccc1-n1cnc(C)c1` (stereo in doubt; 19B) [listing 1 of 2 here], for which the half-life in [1] is 36 min; in series [16], 312 min. For the same compound, the AUC/dose in the series on Mus musculus [2] was determined as 0.84 kg·h/L; in the series on Mus musculus [9], 0.27 kg·h/L. The Vd in series [3] was 0.9 L/kg. In [4], this compound came in with a half-inhibitory concentration (IC50) of 3.7 µM. The same compound had an inhibition in vivo at 150 µmol/kg in the series with Mus musculus [5] of 24%. Further, the Papp A→B in series [6] came out at 22 ×10⁻⁶ cm/s. The solubility in [7] was 6 µM (≈ 2.66 µg/mL). For the same compound, the pIC50 at Gamma-secretase is 8; in series [11], 7.7. Also, the Kp in [8] was determined as 0.72. Also, in the series on Liver microsome, the CLH was determined as 52 µL/min. In the series on Mus musculus [10], this compound showed an inhibition in vivo at 50 µmol/kg of 9%. In addition, in series [12], the Tmax was found to be 30 min. The clearance in series [13] is 21 mL/min/kg. Moreover, the Papp B→A in series [14] amounted to 13 ×10⁻⁶ cm/s. For the same compound, the bioavailability in [15] was found to be 32%. The compound also yielded a peak concentration (Cmax) in series [17] of 1200 nM.

For the compound `COc1cc(Nc2nc3n(n2)C(C)CC(=O)N3Cc2ccccc2)ccc1-n1cnc(C)c1` (stereo in doubt; 19B) [listing 2 of 2 here], in [18], the outcome was inactive. Further, the inhibition result in [19], in series [21], in [22] and in [23] was “inactive” each time. In addition, the inhibition result in series [20] is “Active”.

On to `COc1cc(Nc2nc3n(n2)C(C2CC2)CCN3CC(C)(C)O)ccc1-n1cnc(C)c1` (stereo in doubt; 42A) [listing 1 of 2 here], for which the results for the half-life in series [1] and in series [16] were 54 min and 60 min, respectively. Moreover, the AUC/dose with Mus musculus [2] was 0.67 kg·h/L; in the series on Mus musculus [9], 0.61 kg·h/L. Moreover, in series [3], the Vd amounted to 1.4 L/kg. In series [7], this compound gave a solubility of 63 µM (≈ 27.6 µg/mL). The compound also yielded a CLH in the series on Liver microsome of 37 µL/min. Also, in series [11], the pIC50 is listed as 7.5. Further, the Tmax in series [12] turned out to be 30 min. The same compound showed a clearance in [13] of 25 mL/min/kg. The bioavailability in series [15] was found to be 91%. The same compound returned a Cmax in [17] of 3800 nM.

As for `COc1cc(Nc2nc3n(n2)C(C2CC2)CCN3CC(C)(C)O)ccc1-n1cnc(C)c1` (stereo in doubt; 42A) [listing 2 of 2 here], the inhibition result in series [19], in series [20], in [21], in [22] and in series [23] was “Active” each time. The outcome in [24] was inactive.

A word on the half-life: it is the time in which the quantity being followed falls by half. A lower half-life goes with rapid decline. For orientation: IC50 means the point on the concentration scale where inhibition reaches its midpoint. Low values mean greater potency, high ones weaker potency. For orientation: inhibition in vivo means the relative decrease from the control value, in per cent. Read a high inhibition in vivo as strong suppression. By solubility is commonly meant how much of the substance goes into solution per volume. Lower therefore signals a poorly soluble substance. By pIC50 is commonly meant the negative decadic logarithm of the IC50, by convention in mol/L. One may read the Tmax as the time from dosing to the highest level. For orientation: clearance means the rate of elimination divided by the concentration. Lower therefore signals a low capacity for elimination. The term bioavailability denotes the share of a dose that reaches the circulation, judged against a reference dose that is usually intravenous. Low values mean poor availability, high ones good availability. A word on the Cmax: it is the peak of the concentration-time curve.
